Assay results from PMC5811606, “Characterization of ^111In-labeled Glucose-Dependent Insulinotropic Polypeptide as a Radiotracer for Neuroendocrine Tumors” (Scientific Reports, 2018).
Where two headings read alike, the source gives them in different places.

Assay: Peptide dose escalation study, BHK-GIPR tumor mice
Assay type: in vivo, BALB/c nude mice
Settings: female, iv, total radioactivity; for tissue to tissue ratio at 4 h: BHK-GIPR tumor / blood, read-out: Tumor/Blood
Method: All animal experiments were approved by the Animal Welfare Body of the Radboud University, Nijmegen, The Netherlands and carried out in accordance with their guidelines. Six to eight weeks old, female BALB/c nude mice and C3H mice were purchased from Janvier labs (Le Genest Saint Isle, France). For all in vivo experiments, 6-8 weeks old female BALB/c nude mice were injected subcutaneously in the right shoulder with 0.2 ml of a 2.5 × 10^7 cells/ml suspension of BHK-GIPR transfected cells or with 0.2 ml of a 2.5 × 10^7 cells/ml suspension of NES2Y cells mixed with matrigel (2:1) in the right shoulder. When the tumor reached a diameter of 2-5 mm, mice were randomly divided in groups.
To determine the optimal peptide dose of [Lys^37(DTPA)]N-acetyl-GIP1-42, BHK-GIPR transfected tumor bearing BALB/c nude mice (n = 5/group) were injected intravenously with approximately 3 MBq [Lys^37(^111In-DTPA)]N-acetyl-GIP1-42 (0.05 µg) in the tail vein and were co-injected with escalating amounts of unlabeled [Lys^37(DTPA)]N-acetyl-GIP1-42 (0.05 µg – 1.95 µg), resulting in final peptide doses ranging from 0.1 to 2 µg/mouse (0.02 – 0.4 nmol/mouse) (5 groups, n = 5/group). Four hours after injection, mice were euthanized by CO2/O2 suffocation and tumors and other relevant tissues (heart, muscle, lung, spleen, pancreas, kidney, liver, stomach and duodenum) were dissected, weighed and measured in a well type gamma counter. The percentage injected dose per gram of tissue (%ID/g) was determined for each tissue.

Question: Which tissue uptake at 4 h (BALB/c nude, BHK-GIPR tumor, peptide doses ≤ 0.2 µg (0.04 nmol) per mouse, 4 hours post-injection, mean ± SD, n=5, read-out: tumor uptake) does the source give for CC[C@H](C)[C@H](NC(=O)[C@H](CO)NC(=O)[C@H](Cc1ccc(O)cc1)NC(=O)[C@H](CC(=O)O)NC(=O)[C@H](CO)NC(=O)[C@@H](NC(=O)[C@H](Cc1ccccc1)NC(=O)[C@@H](NC(=O)CNC(=O)[C@H](CCC(=O)O)NC(=O)[C@H](C)NC(=O)[C@H](Cc1ccc(O)cc1)NC(C)=O)[C@@H](C)O)[C@@H](C)CC)C(=O)N[C@@H](C)C(=O)N[C@@H](CCSC)C(=O)N[C@@H](CC(=O)O)C(=O)N[C@@H](CCCCN)C(=O)N[C@H](C(=O)N[C@@H](Cc1c[nH]cn1)C(=O)N[C@@H](CCC(N)=O)C(=O)N[C@@H](CCC(N)=O)C(=O)N[C@@H](CC(=O)O)C(=O)N[C@@H](Cc1ccccc1)C(=O)N[C@H](C(=O)N[C@@H](CC(N)=O)C(=O)N[C@@H](Cc1c[nH]c2ccccc12)C(=O)N[C@@H](CC(C)C)C(=O)N[C@@H](CC(C)C)C(=O)N[C@@H](C)C(=O)N[C@@H](CCC(N)=O)C(=O)N[C@@H](CCCCN)C(=O)NCC(=O)N[C@@H](CCCCN)C(=O)N[C@@H](CCCCN)C(=O)N[C@@H](CC(N)=O)C(=O)N[C@@H](CC(=O)O)C(=O)N[C@@H](Cc1c[nH]c2ccccc12)C(=O)N[C@@H](CCCCNC(=O)CN(CCN(CCN(CC(=O)O)CC(=O)O)CC(=O)O)CC(=O)O)C(=O)N[C@@H](Cc1c[nH]cn1)C(=O)N[C@@H](CC(N)=O)C(=O)N[C@H](C(=O)N[C@H](C(=O)N[C@@H](CCC(N)=O)C(=O)O)[C@@H](C)O)[C@@H](C)CC)C(C)C)[C@@H](C)CC [[Lys^37(^111In-DTPA)]N-acetyl-GIP1-42, metal not drawn] here?
Answer: 5.2 ± 1.4 %ID/g

Question: What about the tissue uptake at 4 h (BALB/c nude, mouse, 0.5 ug/mouse, BHK-GIPR tumor, peptide dose 0.5 µg (0.1 nmol), 4 hours post-injection, mean ± SD, n=5, read-out: tumor uptake) of the same molecule?
Answer: 2.4 ± 0.7 %ID/g

Question: What about the tissue to tissue ratio at 4 h (mouse, 0.1 ug/mouse, BHK-GIPR tumor BALB/c nude mice, i.v., peptide dose 0.1 µg, 4 h p.i., mean n=5) of the same molecule?
Answer: 143

Question: And the tissue to tissue ratio at 4 h (mouse, 0.2 ug/mouse, BHK-GIPR tumor BALB/c nude mice, i.v., peptide dose 0.2 µg, 4 h p.i., mean n=5)?
Answer: 110

Question: What about the tissue to tissue ratio at 4 h (mouse, 0.5 ug/mouse, BHK-GIPR tumor BALB/c nude mice, i.v., peptide dose 0.5 µg, 4 h p.i., mean n=5) of the same molecule?
Answer: 52.6

Question: And the tissue to tissue ratio at 4 h (mouse, 1 ug/mouse, BHK-GIPR tumor BALB/c nude mice, i.v., peptide dose 1 µg, 4 h p.i., mean n=5)?
Answer: 50.3

Question: What about the tissue uptake at 4 h (mouse, blood, 0.1 ug/mouse, BHK-GIPR tumor BALB/c nude mice, i.v., peptide dose 0.1 µg, 4 h p.i., mean n=5, read-out: Blood uptake) of the same molecule?
Answer: 0.033 %ID/g

Question: What about the tissue uptake at 4 h (mouse, blood, 0.2 ug/mouse, BHK-GIPR tumor BALB/c nude mice, i.v., peptide dose 0.2 µg, 4 h p.i., mean n=5, read-out: Blood uptake) of the same molecule?
Answer: 0.047 %ID/g

Question: What about the tissue uptake at 4 h (mouse, blood, 0.5 ug/mouse, BHK-GIPR tumor BALB/c nude mice, i.v., peptide dose 0.5 µg, 4 h p.i., mean n=5, read-out: Blood uptake) of the same molecule?
Answer: 0.047 %ID/g

Question: What about the tissue uptake at 4 h (mouse, blood, 1 ug/mouse, BHK-GIPR tumor BALB/c nude mice, i.v., peptide dose 1 µg, 4 h p.i., mean n=5, read-out: Blood uptake) of the same molecule?
Answer: 0.059 %ID/g

Question: What about the tissue uptake at 4 h (mouse, blood, 2 ug/mouse, BHK-GIPR tumor BALB/c nude mice, i.v., peptide dose 2 µg, 4 h p.i., mean n=5, read-out: Blood uptake) of the same molecule?
Answer: 0.066 %ID/g

Question: And the tissue uptake at 4 h (mouse, duodenum, 0.1 ug/mouse, BHK-GIPR tumor BALB/c nude mice, i.v., peptide dose 0.1 µg, 4 h p.i., mean n=5, read-out: Duodenum uptake)?
Answer: 0.486 %ID/g

Question: What about the tissue uptake at 4 h (mouse, duodenum, 0.2 ug/mouse, BHK-GIPR tumor BALB/c nude mice, i.v., peptide dose 0.2 µg, 4 h p.i., mean n=5, read-out: Duodenum uptake) of the same molecule?
Answer: 0.573 %ID/g

Question: And the tissue uptake at 4 h (mouse, duodenum, 0.5 ug/mouse, BHK-GIPR tumor BALB/c nude mice, i.v., peptide dose 0.5 µg, 4 h p.i., mean n=5, read-out: Duodenum uptake)?
Answer: 0.529 %ID/g

Question: And the tissue uptake at 4 h (mouse, duodenum, 1 ug/mouse, BHK-GIPR tumor BALB/c nude mice, i.v., peptide dose 1 µg, 4 h p.i., mean n=5, read-out: Duodenum uptake)?
Answer: 0.75 %ID/g

Question: And the tissue uptake at 4 h (mouse, duodenum, 2 ug/mouse, BHK-GIPR tumor BALB/c nude mice, i.v., peptide dose 2 µg, 4 h p.i., mean n=5, read-out: Duodenum uptake)?
Answer: 0.929 %ID/g

Question: And the tissue uptake at 4 h (mouse, heart, 0.1 ug/mouse, BHK-GIPR tumor BALB/c nude mice, i.v., peptide dose 0.1 µg, 4 h p.i., mean n=5, read-out: Heart uptake)?
Answer: 0.133 %ID/g

Question: What about the tissue uptake at 4 h (mouse, heart, 0.2 ug/mouse, BHK-GIPR tumor BALB/c nude mice, i.v., peptide dose 0.2 µg, 4 h p.i., mean n=5, read-out: Heart uptake) of the same molecule?
Answer: 0.156 %ID/g

Question: What about the tissue uptake at 4 h (mouse, heart, 0.5 ug/mouse, BHK-GIPR tumor BALB/c nude mice, i.v., peptide dose 0.5 µg, 4 h p.i., mean n=5, read-out: Heart uptake) of the same molecule?
Answer: 0.163 %ID/g

Question: And the tissue uptake at 4 h (mouse, heart, 1 ug/mouse, BHK-GIPR tumor BALB/c nude mice, i.v., peptide dose 1 µg, 4 h p.i., mean n=5, read-out: Heart uptake)?
Answer: 0.178 %ID/g

Question: And the tissue uptake at 4 h (mouse, heart, 2 ug, BHK-GIPR tumor BALB/c nude mice, i.v., peptide dose 2 µg, 4 h p.i., mean n=5, read-out: Heart uptake)?
Answer: 0.173 %ID/g

Question: And the tissue uptake at 4 h (mouse, kidney, 0.1 ug/mouse, BHK-GIPR tumor BALB/c nude mice, i.v., peptide dose 0.1 µg, 4 h p.i., mean n=5, read-out: Kidney uptake)?
Answer: 237 %ID/g

Question: And the tissue uptake at 4 h (mouse, kidney, 0.2 ug/mouse, BHK-GIPR tumor BALB/c nude mice, i.v., peptide dose 0.2 µg, 4 h p.i., mean n=5, read-out: Kidney uptake)?
Answer: 265 %ID/g

Question: What about the tissue uptake at 4 h (mouse, kidney, 0.5 ug/mouse, BHK-GIPR tumor BALB/c nude mice, i.v., peptide dose 0.5 µg, 4 h p.i., mean n=5, read-out: Kidney uptake) of the same molecule?
Answer: 214 %ID/g

Question: And the tissue uptake at 4 h (mouse, kidney, 1 ug/mouse, BHK-GIPR tumor BALB/c nude mice, i.v., peptide dose 1 µg, 4 h p.i., mean n=5, read-out: Kidney uptake)?
Answer: 287 %ID/g

Question: And the tissue uptake at 4 h (mouse, kidney, 2 ug/mouse, BHK-GIPR tumor BALB/c nude mice, i.v., peptide dose 2 µg, 4 h p.i., mean n=5, read-out: Kidney uptake)?
Answer: 257 %ID/g

Question: And the tissue uptake at 4 h (mouse, liver, 0.1 ug/mouse, BHK-GIPR tumor BALB/c nude mice, i.v., peptide dose 0.1 µg, 4 h p.i., mean n=5, read-out: Liver uptake)?
Answer: 1.6 %ID/g

Question: And the tissue uptake at 4 h (mouse, liver, 0.2 ug/mouse, BHK-GIPR tumor BALB/c nude mice, i.v., peptide dose 0.2 µg, 4 h p.i., mean n=5, read-out: Liver uptake)?
Answer: 1.53 %ID/g

Question: What about the tissue uptake at 4 h (mouse, liver, 0.5 ug/mouse, BHK-GIPR tumor BALB/c nude mice, i.v., peptide dose 0.5 µg, 4 h p.i., mean n=5, read-out: Liver uptake) of the same molecule?
Answer: 1.55 %ID/g

Question: And the tissue uptake at 4 h (mouse, liver, 1 ug/mouse, BHK-GIPR tumor BALB/c nude mice, i.v., peptide dose 1 µg, 4 h p.i., mean n=5, read-out: Liver uptake)?
Answer: 1.74 %ID/g

Question: What about the tissue uptake at 4 h (mouse, liver, 2 ug/mouse, BHK-GIPR tumor BALB/c nude mice, i.v., peptide dose 2 µg, 4 h p.i., mean n=5, read-out: Liver uptake) of the same molecule?
Answer: 1.83 %ID/g

Question: And the tissue uptake at 4 h (mouse, lung, 0.1 ug, BHK-GIPR tumor BALB/c nude mice, i.v., peptide dose 0.1 µg, 4 h p.i., mean n=5, read-out: Lung uptake)?
Answer: 0.364 %ID/g

Question: What about the tissue uptake at 4 h (mouse, lung, 0.2 ug, BHK-GIPR tumor BALB/c nude mice, i.v., peptide dose 0.2 µg, 4 h p.i., mean n=5, read-out: Lung uptake) of the same molecule?
Answer: 0.518 %ID/g

Question: And the tissue uptake at 4 h (mouse, lung, 0.5 ug, BHK-GIPR tumor BALB/c nude mice, i.v., peptide dose 0.5 µg, 4 h p.i., mean n=5, read-out: Lung uptake)?
Answer: 0.577 %ID/g

Question: And the tissue uptake at 4 h (mouse, lung, 1 ug, BHK-GIPR tumor BALB/c nude mice, i.v., peptide dose 1 µg, 4 h p.i., mean n=5, read-out: Lung uptake)?
Answer: 0.608 %ID/g

Question: What about the tissue uptake at 4 h (mouse, lung, 2 ug, BHK-GIPR tumor BALB/c nude mice, i.v., peptide dose 2 µg, 4 h p.i., mean n=5, read-out: Lung uptake) of the same molecule?
Answer: 0.56 %ID/g
